Reference: the NIST ThermoML archive (doi:10.1016/j.tca.2011.08.002)

Assays:
[1] = 101 kPa, Liquid, Vibrating tube method
[2] = refractive index (Na D-line) (dimensionless); details: 101.33 kPa, Liquid, Standard Abbe refractometry
[3] = refractive index (Na D-line) (dimensionless); xn = mol fraction of the nth substance listed; details: 101 kPa, Liquid, Standard Abbe refractometry, x1 = 1
[4] = xn = mol fraction of the nth substance listed; details: 101 kPa, Liquid, Vibrating tube method, x1 = 1

CC(C)(C)O [2-methylpropan-2-ol]
Details	mass density, 303.15 K [kg/m3]	mass density, 308.15 K [kg/m3]	mass density, 313.15 K [kg/m3]	mass density, 318.15 K [kg/m3]	mass density, 323.15 K [kg/m3]	refractive index, 303.15 K	refractive index, 308.15 K	refractive index, 313.15 K	refractive index, 318.15 K	refractive index, 323.15 K
[1]	775.412	770.193	764.884	759.488	754.015	–	–	–	–	–
[2]	–	–	–	–	–	1.38222	1.37947	1.37667	1.37384	1.37097

CC(C)(C)O [2-methylpropan-2-ol] + C1CCC(NC2CCCCC2)CC1
Details	mass density, 303.15 K [kg/m3]	mass density, 308.15 K [kg/m3]	mass density, 313.15 K [kg/m3]	mass density, 318.15 K [kg/m3]	mass density, 323.15 K [kg/m3]	refractive index, 303.15 K	refractive index, 308.15 K	refractive index, 313.15 K	refractive index, 318.15 K	refractive index, 323.15 K
[3]	–	–	–	–	–	1.38222	1.37947	1.37667	1.37384	1.37097
[4]	775.412	770.193	764.884	759.488	754.015	–	–	–	–	–

C1CCC(NC2CCCCC2)CC1 [N-cyclohexylcyclohexanamine]
Details	mass density, [1] [kg/m3]	refractive index, [2]
288.15 K	915.498	1.48636
293.15 K	911.705	1.48416
298.15 K	907.923	1.48198
303.15 K	904.144	1.47978
308.15 K	900.372	1.47761
313.15 K	896.608	1.47562
318.15 K	892.847	1.47347
323.15 K	889.089	1.47134

CCCCO [butan-1-ol]
Details	mass density, [1] [kg/m3]	refractive index, [2]
288.15 K	813.373	1.40135
293.15 K	809.573	1.39932
298.15 K	805.762	1.3973
303.15 K	801.923	1.39523
308.15 K	798.053	1.39318
313.15 K	794.147	1.3911
318.15 K	790.231	1.38901
323.15 K	786.238	1.38688

CCCCO [butan-1-ol] + C1CCC(NC2CCCCC2)CC1
Details	mass density, [4] [kg/m3]	refractive index, [3]
288.15 K	813.373	1.40135
293.15 K	809.573	1.39932
298.15 K	805.762	1.3973
303.15 K	801.923	1.39523
308.15 K	798.053	1.39318
313.15 K	794.147	1.3911
318.15 K	790.231	1.38901
323.15 K	786.238	1.38688

CCC(C)O (centres undefined) [butan-2-ol]
Details	mass density, [1] [kg/m3]	refractive index, [2]
288.15 K	810.689	1.39951
293.15 K	806.646	1.39736
298.15 K	802.528	1.39515
303.15 K	798.326	1.39293
308.15 K	794.03	1.39064
313.15 K	789.632	1.38832
318.15 K	785.117	1.38596
323.15 K	780.515	1.38352

CCC(C)O (centres undefined) [butan-2-ol] + C1CCC(NC2CCCCC2)CC1
Details	mass density, [4] [kg/m3]	refractive index, [3]
288.15 K	810.689	1.39951
293.15 K	806.646	1.39736
298.15 K	802.528	1.39515
303.15 K	798.326	1.39293
308.15 K	794.03	1.39064
313.15 K	789.632	1.38832
318.15 K	785.117	1.38596
323.15 K	780.515	1.38352

CCCCCO [pentan-1-ol]
Details	mass density, [1] [kg/m3]	refractive index, [2]
288.15 K	818.282	1.41192
293.15 K	814.635	1.40994
298.15 K	810.968	1.40796
303.15 K	807.278	1.40595
308.15 K	803.558	1.40388
313.15 K	799.817	1.40189
318.15 K	796.001	1.39987
323.15 K	792.166	1.39776

CCCCCO [pentan-1-ol] + C1CCC(NC2CCCCC2)CC1
Details	mass density, [4] [kg/m3]	refractive index, [3]
288.15 K	818.282	1.41192
293.15 K	814.635	1.40994
298.15 K	810.968	1.40796
303.15 K	807.278	1.40595
308.15 K	803.558	1.40388
313.15 K	799.817	1.40189
318.15 K	796.001	1.39987
323.15 K	792.166	1.39776

CCCO [propan-1-ol]
Details	mass density, [1] [kg/m3]	refractive index, [2]
288.15 K	807.69	1.38785
293.15 K	803.703	1.38578
298.15 K	799.692	1.38364
303.15 K	795.65	1.38153
308.15 K	791.576	1.37929
313.15 K	787.466	1.37702
318.15 K	783.309	1.37483
323.15 K	779.095	1.37252

CCCO [propan-1-ol] + C1CCC(NC2CCCCC2)CC1
Details	mass density, [4] [kg/m3]	refractive index, [3]
288.15 K	807.69	1.38785
293.15 K	803.703	1.38578
298.15 K	799.692	1.38364
303.15 K	795.65	1.38153
308.15 K	791.576	1.37929
313.15 K	787.466	1.37702
318.15 K	783.309	1.37483
323.15 K	779.095	1.37252
